According to patent publication US20070232615A1, “Chemical Compounds” (priority 2004, published 2007):

The molecules below were run on HIV (assay: HOS HIV infectivity assay (Table 2, strain not given)). Conditions: Human immunodeficiency virus 1, read-out: Activity Level.
Type: cell-based
Summary of the method: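 HOS cells expressing hCXCR4/hCCR5/hCD4 and an HIV-LTR-luciferase reporter were preincubated with compound for 1 h in DMEM/2% FCS. They were then infected with HIV-1 Ba-L or IIIB (about 2 million RLU/well) for 96 h at 37° C. Infection was read by luciferase luminescence, and viability in uninfected cultures by CellTiter-Glo.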
Molecule `CN1CCC(N(C)c2cccc3nc(CN(C)[C@H]4CCCc5cccnc54)cn23)CC1` [Example 87, (8S)—N-Methyl-N-({5-[methyl(1-methyl-4-piperidinyl)amino]imidazo[1,2-a]pyridin-2-yl}methyl)-5,6,7,8-tetrahydro-8-quinolinamine] has an IC50 of less than 100 nM.
Work on `CN(C)CCNc1cccc2nc(CN(C)[C@H]3CCCc4cccnc43)cn12` [Example 101, N,N-Dimethyl-N′-[2-({methyl[(8S)-5,6,7,8-tetrahydro-8-quinolinyl]amino}methyl)imidazo[1,2-a]pyridin-5-yl]-1,2-ethanediamine] yielded an IC50 of less than 100 nM.
`CN(Cc1cn2c(-c3cccnc3)cccc2n1)C1CCCc2cccnc21` (stereo not shown) [Example 40, N-Methyl-N-{[5-(3-pyridinyl)imidazo[1,2-a]pyridin-2-yl]methyl}-5,6,7,8-tetrahydro-8-quinolinamine] was tested, and the IC50 was 500 to 10000 nM.
`CN1CCN(c2cccc3nc(CN(C)[C@@H]4CCCc5cccnc54)cn23)CC1` [Example 52, (8R)—N-Methyl-N-{[5-(4-methyl-1-piperazinyl)imidazo[1,2-a]pyridin-2-yl]methyl}-5,6,7,8-tetrahydro-8-quinolinamine] was tested, and the IC50 was less than 100 nM.
Molecule `CC(c1cn2c(N3CCN(C)CC3)cccc2n1)N(C)[C@H]1CCCc2cccnc21` (stereo partly drawn) [Example 100, (8S)—N-Methyl-N-{1-[5-(4-methyl-1-piperazinyl)imidazo[1,2-a]pyridin-2-yl]ethyl}-5,6,7,8-tetrahydro-8-quinolinamine] has an IC50 of less than 100 nM.
In the case of `CN1CCN(c2cccc3nc(CN(C4CC4)C4CCCc5cccnc54)cn23)CC1` (stereo not shown) [Example 34, N-Cyclopropyl-N-{[5-(4-methyl-1-piperazinyl)imidazo[1,2-a]pyridin-2-yl]methyl}-5,6,7,8-tetrahydro-8-quinolinamine], the IC50 is reported as less than 100 nM.
With `CN(Cc1cn2c(N3CCC(N)CC3)cccc2n1)[C@H]1CCCc2cccnc21` [Example 80, (8S)—N-{[5-(4-Amino-1-piperidinyl)imidazo[1,2-a]pyridin-2-yl]methyl}-N-methyl-5,6,7,8-tetrahydro-8-quinolinamine] the IC50 was less than 100 nM.
With `CN1CCN(c2cccc3nc(CN(CCCO)[C@H]4CCCc5cccnc54)cn23)CC1` [Example 79, 3-{{[5-(4-Methyl-1-piperazinyl)imidazo[1,2-a]pyridin-2-yl]methyl}[(8S)-5,6,7,8-tetrahydro-8-quinolinyl]amino}-1-propanol] the IC50 was less than 100 nM.
Work on `COc1ccccc1CN(Cc1cn2c(N3CCN(C)CC3)cccc2n1)[C@H]1CCCc2cccnc21` [Example 72, (8S)—N-{[2-(Methyloxy)phenyl]methyl}-N-{[5-(4-methyl-1-piperazinyl)imidazo[1,2-a]pyridin-2-yl]methyl}-5,6,7,8-tetrahydro-8-quinolinamine] yielded an IC50 of less than 100 nM.
Work on `CN(C)CCOc1cccc2nc(CN(C)[C@H]3CCCc4cccnc43)cn12` [Example 104, (8S)—N-[(5-{[2-(Dimethylamino)ethyl]oxy}imidazo[1,2-a]pyridin-2-yl)methyl]-N-methyl-5,6,7,8-tetrahydro-8-quinolinamine] yielded an IC50 of less than 100 nM.
`CCCN(Cc1cn2c(N3CCN(C)CC3)cccc2n1)[C@H]1CCCc2cccnc21` [Example 56, (8S)—N-{[5-(4-Methyl-1-piperazinyl)imidazo[1,2-a]pyridin-2-yl]methyl}-N-propyl-5,6,7,8-tetrahydro-8-quinolinamine] gave an IC50 of less than 100 nM.
`CCN(CC)[C@@H]1CCN(c2cccc3nc(CN(C)[C@H]4CCCc5cccnc54)cn23)C1` [Example 93, (8S)—N-({5-[(3R)-3-(Diethylamino)-1-pyrrolidinyl]imidazo[1,2-a]pyridin-2-yl}methyl)-N-methyl-5,6,7,8-tetrahydro-8-quinolinamine] showed an IC50 of less than 100 nM.
Work on `CN1CCN(c2cccc3nc(CN(Cc4ccc(Br)cc4)[C@H]4CCCc5cccnc54)cn23)CC1` [Example 65, (8S)—N-[(4-Bromophenyl)methyl]-N-{[5-(4-methyl-1-piperazinyl)imidazo[1,2-a]pyridin-2-yl]methyl}-5,6,7,8-tetrahydro-8-quinolinamine] yielded an IC50 of less than 100 nM.
With `Cc1ccccc1CN(Cc1cn2c(N3CCN(C)CC3)cccc2n1)[C@H]1CCCc2cccnc21` [Example 66, (8S)—N-[(2-Methylphenyl)methyl]-N-{[5-(4-methyl-1-piperazinyl)imidazo[1,2-a]pyridin-2-yl]methyl}-5,6,7,8-tetrahydro-8-quinolinamine] the IC50 was less than 100 nM.
With `COc1ccc([C@H](C)N(Cc2cn3c(N4CCN(C)CC4)cccc3n2)[C@H]2CCCc3cccnc32)cc1` [Example 48, (8S)—N-{(1S)-1-[4-(Methyloxy)phenyl]ethyl}-N-{[5-(4-methyl-1-piperazinyl)imidazo[1,2-a]pyridin-2-yl]methyl}-5,6,7,8-tetrahydro-8-quinolinamine] the IC50 was 100 to 500 nM.
`CN(Cc1cn2c(N3CCCNCC3)cccc2n1)[C@H]1CCCc2cccnc21` [Example 84, (8S)—N-{[5-(Hexahydro-1H-1,4-diazepin-1-yl)imidazo[1,2-a]pyridin-2-yl]methyl}-N-methyl-5,6,7,8-tetrahydro-8-quinolinamine] was tested, and the IC50 was less than 100 nM.
